# Reference: patent publication US20140094505A1, “BIOMARKERS FOR ASSESSING TREATMENT OF SIALIC ACID DEFICIENCY DISEASES AND CONDITIONS” (Ultragenyx Pharmaceutical Inc., priority 2012, published 2014)
# Tested on: serum biomarkers (SAT biomarkers)
# Experiment: Phase 2: change (delta) in serum biomarker levels between week 0 and week 24 per dosage group (placebo, 3 g/day, 6 g/day), Human Discovery MAP250+ v2.0
# Type: in vivo
# Design: key to overall trend, Epithelial-Derived Neutrophil-Activating Protein 78 (ENA-78) / overall trend, Lactoylglutathione lyase (LGL) / overall trend, Latency-Associated Peptide of Transforming Growth Factor beta 1 (LAP TGF-b1) / overall trend, Macrophage Colony-Stimulating Factor 1 (M-CSF) / overall trend, Matrix Metalloproteinase-9, total (MMP-9, total) / overall trend, Myoglobin / overall trend, Neuronal Cell Adhesion Molecule (Nr-CAM) / overall trend, Plasminogen Activator Inhibitor 1 (PAI-1) / overall trend, Receptor tyrosine-protein kinase erbB-3 (ErbB3) / overall trend, Vascular Endothelial Growth Factor C (VEGF-C) / overall trend, Chromogranin-A (CgA): normalization: level moved toward normal level and the change in 6 g/day group was larger compared to placebo; stabilization: level might still move away from normal level but at a slower rate in 6 g/day group compared to placebo
# Details: HIBM patients
# Protocol: Forty-seven (47) HIBM patient serum samples collected at week 24 from phase 2 study were tested using the Human Discovery MAP250+ v2.0 quantitative immunoassay system developed by Myriad RBM. The results were compared to the serum samples of the same 47 HIBM patients collected at week 0 (baseline) which were conducted earlier with the same immunoassay system.
# Patients were unblinded and the results were organized into the 3 assigned dosage groups, placebo (n=14), 3 g/day (n=17) and 6 g/day (n=14). The major focus of the analysis was 1) to assess changes (delta, Δ) in levels of analytes between baseline and week 24 in each dosage group, 2) whether the changes correlate to dosage levels.
# Analytes were excluded from analysis if […] of the HIBM patient samples were below least detectable dose (LDD). Within each dosage group, individual values with >5× difference to the mean of the dosage group were considered as outliers and thus removed from analysis.
# Upon treatment, levels of these analytes show an overall trend of either stabilization or normalization. […] For example, LAP TGF-b1 is an example of biomarker showing trend of normalization when the baseline level in HIBM patients is higher than normal controls, see FIG. 2. NCAM is another example of biomarker showing trend of normalization when the baseline level in HIBM patients is lower than normal controls, see FIG. 3.
structure (smiles),measurement,setting,value
"CC(=O)N[C@H]1[C@H]([C@H](O)[C@H](O)CO)OC(O)(C(=O)O)C[C@@H]1O (stereo partly drawn) [Sialic Acid, 5-N-acetylneuraminic acid]","average Δweek 0-24 (3 g/day), Chromogranin-A (CgA)","3 g/day, week 0 to week 24",64.00 ng/mL
same,"average Δweek 0-24 (3 g/day), Epithelial-Derived Neutrophil-Activating Protein 78 (ENA-78)","3 g/day, week 0 to week 24",-0.26 ng/mL
same,"average Δweek 0-24 (3 g/day), Lactoylglutathione lyase (LGL)","3 g/day, week 0 to week 24",0.25 ng/mL
same,"average Δweek 0-24 (3 g/day), Latency-Associated Peptide of Transforming Growth Factor beta 1 (LAP TGF-b1)","3 g/day, week 0 to week 24",-0.44 ng/mL
same,"average Δweek 0-24 (3 g/day), Macrophage Colony-Stimulating Factor 1 (M-CSF)","3 g/day, week 0 to week 24",0.10 ng/mL
same,"average Δweek 0-24 (3 g/day), Matrix Metalloproteinase-9, total (MMP-9, total)","3 g/day, week 0 to week 24",449.18 ng/mL
same,"average Δweek 0-24 (3 g/day), Myoglobin","3 g/day, week 0 to week 24",-48.88 ng/mL
same,"average Δweek 0-24 (3 g/day), Neuronal Cell Adhesion Molecule (Nr-CAM)","3 g/day, week 0 to week 24",-0.07 ng/mL
same,"average Δweek 0-24 (3 g/day), Plasminogen Activator Inhibitor 1 (PAI-1)","3 g/day, week 0 to week 24",0.82 ng/mL
same,"average Δweek 0-24 (3 g/day), Receptor tyrosine-protein kinase erbB-3 (ErbB3)","3 g/day, week 0 to week 24",-0.28 ng/mL
same,"average Δweek 0-24 (3 g/day), Vascular Endothelial Growth Factor C (VEGF-C)","3 g/day, week 0 to week 24",1.35 ng/mL
same,"overall trend, Chromogranin-A (CgA)","6 g/day vs placebo, week 24",stabilization
same,"overall trend, Epithelial-Derived Neutrophil-Activating Protein 78 (ENA-78)","6 g/day vs placebo, week 24",normalization
same,"overall trend, Lactoylglutathione lyase (LGL)","6 g/day vs placebo, week 24",normalization
same,"overall trend, Latency-Associated Peptide of Transforming Growth Factor beta 1 (LAP TGF-b1)","6 g/day vs placebo, week 24",normalization
same,"overall trend, Macrophage Colony-Stimulating Factor 1 (M-CSF)","6 g/day vs placebo, week 24",stabilization
same,"overall trend, Matrix Metalloproteinase-9, total (MMP-9, total)","6 g/day vs placebo, week 24",stabilization
same,"overall trend, Myoglobin","6 g/day vs placebo, week 24",normalization
same,"overall trend, Neuronal Cell Adhesion Molecule (Nr-CAM)","6 g/day vs placebo, week 24",normalization
same,"overall trend, Plasminogen Activator Inhibitor 1 (PAI-1)","6 g/day vs placebo, week 24",normalization
same,"overall trend, Receptor tyrosine-protein kinase erbB-3 (ErbB3)","6 g/day vs placebo, week 24",stabilization
same,"overall trend, Vascular Endothelial Growth Factor C (VEGF-C)","6 g/day vs placebo, week 24",stabilization
same,"average Δweek 0-24 (6 g/day), Chromogranin-A (CgA)","6 g/day, week 0 to week 24",5.83 ng/mL
same,"average Δweek 0-24 (6 g/day), Epithelial-Derived Neutrophil-Activating Protein 78 (ENA-78)","6 g/day, week 0 to week 24",-0.42 ng/mL
same,"average Δweek 0-24 (6 g/day), Lactoylglutathione lyase (LGL)","6 g/day, week 0 to week 24",-8.27 ng/mL
same,"average Δweek 0-24 (6 g/day), Latency-Associated Peptide of Transforming Growth Factor beta 1 (LAP TGF-b1)","6 g/day, week 0 to week 24",-1.00 ng/mL
same,"average Δweek 0-24 (6 g/day), Macrophage Colony-Stimulating Factor 1 (M-CSF)","6 g/day, week 0 to week 24",0.02 ng/mL
same,"average Δweek 0-24 (6 g/day), Matrix Metalloproteinase-9, total (MMP-9, total)","6 g/day, week 0 to week 24",444.64 ng/mL
same,"average Δweek 0-24 (6 g/day), Myoglobin","6 g/day, week 0 to week 24",-38.00 ng/mL
same,"average Δweek 0-24 (6 g/day), Neuronal Cell Adhesion Molecule (Nr-CAM)","6 g/day, week 0 to week 24",0.02 ng/mL
same,"average Δweek 0-24 (6 g/day), Plasminogen Activator Inhibitor 1 (PAI-1)","6 g/day, week 0 to week 24",-0.36 ng/mL
same,"average Δweek 0-24 (6 g/day), Receptor tyrosine-protein kinase erbB-3 (ErbB3)","6 g/day, week 0 to week 24",-0.16 ng/mL
same,"average Δweek 0-24 (6 g/day), Vascular Endothelial Growth Factor C (VEGF-C)","6 g/day, week 0 to week 24",6.43 ng/mL
